Reference: ChEMBL document CHEMBL5325509, “Pyrrolidinedione-thiazolidinone hybrid molecules with potent cytotoxic effect in squamous cell carcinoma SCC-15 cells” (Bioorg Med Chem, 2023)
Activity calls are given as the source filed them. The rule behind the calls is not given here.

Legend:
HaCaT = test: Cytotoxicity against human HaCaT cells assessed reduction in cellular metabolic activity at 0.1 to 100 uM incubated for 24 to 72 hrs by MTT assay; assay type: toxicity, cell-based; details: dose lower 0.1 µM, time lower 24 hrs, dose upper 100 µM, time upper 72 hrs
BALB/3T3 = test: Cytotoxicity against mouse BALB/3T3 cells assessed reduction in cellular metabolic activity at 0.1 to 100 uM incubated for 24 to 72 hrs by MTT assay; assay type: toxicity, cell-based; details: balb/3t3, 100 µM, dose lower 0.1 µM, time lower 24 hrs, dose upper 100 µM, time upper 72 hrs
Breast carcinoma cell = test: Cytotoxicity against human Breast carcinoma cell assessed as inhibition of cell growth measured at 72 hrs; assay type: functional, cell-based
SCC-15 [1] = test: Induction of intracellular ROS generation in human SCC-15 cells incubated for 24 to 48 hrs by DCFH-DA staining based immunofluorescence analysis; assay type: functional, cell-based; details: dose 0.001-100 µM, time 24-48 hrs
SCC-15 [2] = test: Induction of intracellular ROS generation in human SCC-15 cells at 10 to 100 uM incubated for 48 hrs by DCFH-DA staining based immunofluorescence analysis; assay type: functional; details: dose 10-100 µM
SCC-15 [3] = test: Induction of intracellular ROS generation in human SCC-15 cells at 0.001 to 10 uM incubated for 48 hrs by DCFH-DA staining based immunofluorescence analysis; assay type: functional; details: dose 0.001-10 µM
[4] = Downregulation of PPARgamma expression in PPARgamma-silenced human SCC-15 cells at 1 uM incubated for 48 hrs Western blot analysis relative to control; assay type: functional
[5] = Upregulation of Caspase-3 activity in human SCC-15 cells at 50 uM measured after 24 hrs in presence of Ac-DEVD-AMC by fluorescence microplate reader analysis; assay type: functional
[6] = Upregulation of NRFL2 mRNA expression in PPARgamma knockdown human SCC-15 cells at 1 uM measured after 24 hrs by RT-PCR analysis; assay type: functional
[7] = Downregulation of AHR mRNA expression in PPARgamma-silenced human SCC-15 cells at 1 uM measured after 24 hrs by RT-PCR analysis; assay type: functional
Colon carcinoma cell = test: Cytotoxicity against human Colon carcinoma cell assessed as inhibition of cell growth measured at 72 hrs; assay type: functional, cell-based
[8] = Cytotoxicity against mouse BALB/3T3 cells assessed reduction in cellular metabolic activity incubated for 24 to 72 hrs by MTT assay; assay type: toxicity, cell-based
SCC-15 [9] = test: Cytotoxicity against human SCC-15 cells assessed as decrease in cellular metabolic activity incubated for 48 hrs by resazurin reduction assay; assay type: functional, cell-based; details: SCC-15, 48 h
[10] = Upregulation of AHR expression in PPARgamma-silenced human SCC-15 cells at 1 uM incubated for 48 hrs Western blot analysis relative to control; assay type: functional
SCC-15 [11] = test: Cytotoxicity against human SCC-15 cells assessed as LDH release incubated for 48 hrs; assay type: functional, cell-based; details: SCC-15, 48 h
[12] = Downregulation of Ki67 expression in PPARgamma-silenced human SCC-15 cells at 1 uM incubated for 48 hrs Western blot analysis relative to control; assay type: functional
SCC-15 [13] = test: Cytotoxicity against human SCC-15 cells assessed as LDH release at 1 to 100 uM incubated for 48 hrs relative to control; assay type: functional; details: dose 1-100 µM
Lung cancer cell line = test: Cytotoxicity against human Lung cancer cell line assessed as inhibition of cell growth measured at 72 hrs; assay type: functional, cell-based
SCC-15 [14] = test: Cytotoxicity against human SCC-15 cells assessed as LDH release at 1 to 100 uM incubated for 24 hrs relative to control; assay type: functional; details: dose 1-100 µM
SCC-15 [15] = test: Cytotoxicity against human SCC-15 cells assessed as LDH release incubated for 24 hrs; assay type: functional, cell-based; details: SCC-15, 24 h
[16] = Cytotoxicity against human Cervical carcinoma cell assessed as inhibition of cell growth measured at 72 hrs; assay type: functional, cell-based
SCC-15 [17] = test: Induction of intracellular ROS generation in human SCC-15 cells at 0.001 to 10 uM incubated for 24 hrs by DCFH-DA staining based immunofluorescence analysis; assay type: functional, cell-based; details: dose 0.001-10 µM
[18] = Cytotoxicity against human HaCaT cells assessed reduction in cellular metabolic activity incubated for 24 to 72 hrs by MTT assay; assay type: toxicity, cell-based
SCC-15 [19] = test: Induction of intracellular ROS generation in human SCC-15 cells at 50 to 100 uM incubated for 24 hrs by DCFH-DA staining based immunofluorescence analysis; assay type: functional; details: dose 50-100 µM
SCC-15 [20] = test: Cytotoxicity against human SCC-15 cells assessed as decrease in cellular metabolic activity at 100 uM incubated for 24 hrs by resazurin reduction assay relative to control; assay type: functional; design: scale not given: the % may be the effect or the level left
SCC-15 [21] = test: Cytotoxicity against human SCC-15 cells assessed as decrease in cellular metabolic activity at 10 to 100 uM incubated for 48 hrs by resazurin reduction assay relative to control; assay type: functional; design: scale not given: the % may be the effect or the level left; details: dose 10-100 µM
[22] = Downregulation of PCNA expression in PPARgamma-silenced human SCC-15 cells at 1 uM incubated for 48 hrs Western blot analysis relative to siRNA control; assay type: functional
[23] = Upregulation of PPARgamma expression in PPARgamma-silenced human SCC-15 cells at 1 uM incubated for 48 hrs Western blot analysis relative to SiRNA control; assay type: functional
[24] = Upregulation of Caspase-3 activity in human SCC-15 cells at 100 uM measured after 24 hrs in presence of Ac-DEVD-AMC by fluorescence microplate reader analysis; assay type: functional
[25] = Downregulation of AHR expression in PPARgamma-silenced human SCC-15 cells at 1 uM incubated for 48 hrs Western blot analysis relative to SiRNA control; assay type: functional
Glioblastoma cell line = test: Cytotoxicity against human Glioblastoma cell line assessed as inhibition of cell growth measured at 72 hrs; assay type: functional, cell-based
[26] = Upregulation of PPARgamma expression in PPARgamma-silenced human SCC-15 cells at 1 uM incubated for 48 hrs Western blot analysis relative to control; assay type: functional
[27] = Downregulation of NRFL2 mRNA expression in PPARgamma-silenced human SCC-15 cells at 1 uM measured after 24 hrs by RT-PCR analysis; assay type: functional
[28] = Downregulation of Ki67 expression in PPARgamma-silenced human SCC-15 cells at 1 uM incubated for 48 hrs Western blot analysis relative to siRNA control; assay type: functional
SCC-15 [29] = test: Cytotoxicity against human SCC-15 cells assessed as decrease in cellular metabolic activity incubated for 24 hrs by resazurin reduction assay; assay type: functional, cell-based; details: SCC-15, 24 h
Leukemic tumor cell line = test: Cytotoxicity against human Leukemic tumor cell line assessed as inhibition of cell growth measured at 72 hrs; assay type: functional, cell-based
[30] = Downregulation of PPARgamma mRNA expression in PPARgamma-silenced human SCC-15 cells at 1 uM measured after 24 hrs by RT-PCR analysis; assay type: functional
[31] = Upregulation of Caspase-3 activity in human SCC-15 cells at 100 uM measured after 48 hrs in presence of Ac-DEVD-AMC by fluorescence microplate reader analysis; assay type: functional
SCC-15 [32] = test: Induction of intracellular ROS generation in human SCC-15 cells at 0.001 to 100 uM by DCFH-DA staining based immunofluorescence analysis; assay type: functional, cell-based; details: dose 0.001-100 µM, time 24-48 hrs, TDE = time-dependent effect

O=C1CC(N2C(=O)/C(=C/C(Cl)=C/c3ccc([N+](=O)[O-])cc3)SC2=S)C(=O)N1c1ccc(Cl)cc1 (centres undefined)
Activity (HaCaT): Non-Toxic
Activity (BALB/3T3): Non-Toxic
IC50 (Breast carcinoma cell): 1000 nM
Activity (SCC-15 [1]): Dose-Dependent Effect
Activity (SCC-15 [2]): 13.13%
Activity (SCC-15 [3]): 15.81%
Activity [4]: 46.82%
Activity [5]: 29.03%
Activity [6]: 12.9%
Activity [7]: 9.11%
IC50 (Colon carcinoma cell): 1000 nM
IC50 [8]: > 100000 nM
IC50 (SCC-15 [9]): 30400 nM
Activity [10]: 17.79%
EC50 (SCC-15 [11]): 10200 nM
Activity [12]: 42.01%
Activity (SCC-15 [13]): 49.3%
IC50 (Lung cancer cell line): 1000 nM
Activity (SCC-15 [14]): 2%
EC50 (SCC-15 [15]): 14800 nM
IC50 [16]: 1000 nM
Activity (SCC-15 [17]): inactive
IC50 [18]: > 100000 nM
Activity (SCC-15 [19]): 18.64%
Activity (SCC-15 [20]): 34.08%
Activity (SCC-15 [21]): 31.6%
Activity [22]: 34.64%
Activity [23]: 26.46%
Activity [24]: 135.01%
Activity [25]: 32.59%
IC50 (Glioblastoma cell line): 1000 nM
Activity [26]: 23.81%
Activity [27]: 30.64%
Activity [28]: 44.91%
IC50 (SCC-15 [29]): > 100000 nM
IC50 (Leukemic tumor cell line): 1000 nM
Activity [30]: 82.31%
Activity [31]: 55.58%
Activity (SCC-15 [32]): Tde
